Values belong to the compound of their own block, whether it stands above or below them. Square brackets hold non-standard residues; d marks the D form. Peptide text beside a SMILES is read from it.
Experiments:
[1] = Oral pharmacokinetics after single oral dose; format: in vivo, Brown-Norway rats; details: single oral dose of 10 mg peptide, gavage
Procedure: (§1) For all oral experiments, administration via gavage began between 8:30-8:50 am with a 3-minute delay between each rat. Animals used for pharmacokinetic studies were fasted for 4 hrs before starting gavage at 1 pm with a 3-minute delay between each rat.
For oral pharmacokinetic experiments, jugular blood samples were collected following a single oral dose of 10 mg peptide in 1 ml of vehicle after 5, 15, 30, 45, 60, 90, and 120 minutes. Protein inhibitor cocktail (ROCHE, cOmplete protein inhibitors, Cat #11697498001), which was added into the EDTA collection tubes, was used for KVSQ and RVTQ peptides. Plasma was immediately extracted, and 100 μL of plasma were crashed with 300 μL of 100% methanol, spun at 14 000 RPM for 10 min, and the supernatant harvested. Re-extraction of the precipitant and solubilization of the pellet were as described above.
The analytical instrumentation consisted of a Thermo-Scientific ISQ Quantiva Triple Quadrupole Mass Spectrometer (QQQ), incorporating a heated electrospray ionization (HESI) source, and a Thermo-Scientific UltiMate™ 3000 UHPLC system (including, UltiMate™ 3000 RS autosampler). Analytical conditions were developed using a reference standard in a solution containing 5 μM of the corresponding peptide. The chromatography was resolved by isocratic elution of a binary solvent system incorporating (A) 0.1% Formic Acid (aq) and (B) ACN+0.1% FA and using an Agilent Eclipse Plus™ C18 analytical column (100 mm×2.1 mm ID, 1.8 μm particle). A 5 μL injection volume and solvent flow rate of 150 μL/min were used. The MS/MS acquisition time was 7 min and total run time was 8.3 min/injection. The triple Quadrupole MS/MS instrumentation conditions were as follows: the HESI source voltage was 3200 V, the sheath gas […], auxiliary gas 20 L/min, sweep gas 2.0 L/min, the ion transfer temperature was 350° C., the vaporizer temperature was 350° C., the CID gas was 1.5 (mTorr) and the dwell time was 100 msec. The Q1 Resolution (FWHM) was 0.4 (unitless) and the Q3 resolution (FWHM) was 0.7 (unitless). […]

[2] = tested on: plasma testosterone level in Brown-Norway rats; experiment: Oral administration (gavage) of peptides, plasma testosterone; format: in vivo; details: for average testosterone levels across doses: gavage ~10, 220, or 420 μg/kg, after two hrs, rats aged 82-131 days; for average testosterone levels: gavage ~10 μg/kg; for testosterone levels: oral gavage ~580 μg/kg
Procedure: (§2) Peptides. Peptides were obtained from CanPeptide (Montreal, Quebec) with >95% purity. All peptides were dissolved in molecular grade, sterile double distilled water to obtain a 1 mM stock solution and stored at −20° C. Peptides used for oral screenings were prepared from 1 mM peptide stock and diluted in sterile tap water in a total volume of 1 mL. Peptides used for pharmacokinetic experiments were diluted at 10 mg/ml using sterile tap water. Some of the peptides were chemically modified after synthesis. The following table summarizes the peptides that have been tested:
(§3) Animal handling, blood collections, surgical procedures, and oral administration of peptides. Brown-Norway rats aged 22-28, 36-42, or 50-56 days-old were purchased from Charles River Laboratories (Senneville, Quebec) and aged until needed. Rats were kept on a 12 L/12 D day cycle with lights on at 7 AM and access to food and water ad libitum.
(§4) For all experiments, plasma samples were obtained via percutaneous jugular puncture and collected in EDTA KE/1.3 tubes (Sarstedt, Numbrecht, Germany, Cat #5072511). Blood collection time points are indicated in each figure legend. Samples were centrifuged at 1 300 RCF for 10 min, and the plasma was stored in 2 mL Wheaton glass vials (Fisher Scientific, Hampton, NH, Cat #03 337 21A) and kept at −20° C. until needed.
as §1
(§5) Plasma steroid measurements. Testosterone levels were measured using Cayman (Ann Arbor, MI) EIA kit Cat #582701, and corticosterone levels were measured using Cayman EIA kit Cat #501320. All samples were measured in duplicate according to the manufacturer's instructions. Samples were diluted until the average control levels fitted the middle of the standard curve. The number of animals used for each experiment is noted in the corresponding figure legend.

[3] = Peptide stability in plasma; format: in vitro ADME, Brown-Norway rats; details: for half-life in plasma (rank order): 4 μM peptide (KVSQ 12.5 μM) in 100 μL rat plasma, 37° C., 1-120 minutes; for stability / degradation in plasma: in vitro rat plasma incubation
Procedure: Peptide stability in plasma, oral pharmacokinetics, and quantification. For peptide stability experiments, plasma from Brown-Norway rats age 90-140 days was collected and stored at −20° C. until further use. The plasma was thawed, spun at 12 000 RPM for 10 min, and kept at 4° C. 4 μM of the various peptides were incubated with 100 μL of plasma that was warmed at 37° C. for 10 min before use. After 1, 15, 30, 60, 90 or 120 minutes, the plasma/peptide samples were crashed with 300 μL of 100% methanol, spun at 14 000 RPM for 10 min, and the supernatant collected. The methanol in the supernatant was evaporated and the samples were re-extracted. The final pellet was solubilized in 5 μL methanol followed by the addition of 100 μL of sterile double distilled water. The extracted samples were transferred to plastic tubes and placed in the autoloader of the mass spectrometer.
The analytical instrumentation consisted of a Thermo-Scientific ISQ Quantiva Triple Quadrupole Mass Spectrometer (QQQ), incorporating a heated electrospray ionization (HESI) source, and a Thermo-Scientific UltiMate™ 3000 UHPLC system (including, UltiMate™ 3000 RS autosampler). Analytical conditions were developed using a reference standard in a solution containing 5 μM of the corresponding peptide. The chromatography was resolved by isocratic elution of a binary solvent system incorporating (A) 0.1% Formic Acid (aq) and (B) ACN+0.1% FA and using an Agilent Eclipse Plus™ C18 analytical column (100 mm×2.1 mm ID, 1.8 μm particle). A 5 μL injection volume and solvent flow rate of 150 μL/min were used. The MS/MS acquisition time was 7 min and total run time was 8.3 min/injection. The triple Quadrupole MS/MS instrumentation conditions were as follows: the HESI source voltage was 3200 V, the sheath gas […], auxiliary gas 20 L/min, sweep gas 2.0 L/min, the ion transfer temperature was 350° C., the vaporizer temperature was 350° C., the CID gas was 1.5 (mTorr) and the dwell time was 100 msec. The Q1 Resolution (FWHM) was 0.4 (unitless) and the Q3 resolution (FWHM) was 0.7 (unitless). The instrument ran in a selected reaction monitoring (SRM), positive ion detection mode at various collision energies (CE) for the following mass transitions: • Ac-RITQdS-NH2: p84 (m/z 645→m/z 295, m/z 396) • RdVTQ: p72 (m/z 503→m/z 211). • Ac-RdITQ-NH2: p87 (m/z 558→m/z 391, m/z 267) • RVTQ: p64 (m/z 503→m/z 211; m/z 503→m/z 357 and m/z 503→m/z 256) • KVSQ: p95 (m/z 461→m/z 129) and (m/z 461→m/z 234)

[4] = tested on: plasma corticosterone level in Brown-Norway rats; experiment: Subcutaneous osmotic pump infusion of TV159-172 derivatives and N163-166, plasma corticosterone (Example II); format: in vivo; details: 40 days after implantation
Procedure: (§6) Animal handling, serum, plasma, and intratesticular sample collection. Brown-Norway rats aged 36-42 days old were purchased from Charles River and aged until ˜60 days old. Rats were kept on a 12 L/12 D day cycle with lights on at 7 AM and had access to food and water ad libitum.
(§7) Jugular samples were collected via percutaneous puncture and samples were collected in EDTA coated tubes (plasma) and centrifuged at 1,300 RCF for 10 min and stored in 2 mL Wheaton glass vials (Fisher Scientific, Hampton, NH, Cat #03 337 21A) and kept at −20° C. Animals were handled according to protocols approved by the McGill University Animal Care and Use Committee, which included standard operating procedures for the amount and frequency of blood sample collections.
(§8) Hormone measurements. Testosterone levels were measured using Cayman (Ann Arbor, MI) EIA kit Cat #582701 and corticosterone levels were measured using Cayman EIA kit Cat #501320. Plasma fluid samples were diluted until controls fitted the middle of the standard curve used.
(§9) Osmotic pumps. Alzet 2006 osmotic pumps were purchased from Alzet (Cupertino, CA) with an infusion rate of 0.15 μL/hr. The peptide concentration loaded into the pumps accounted for weight gain at the time of collection and was adjusted to deliver the doses indicated in each figure. The pump infusion rates varied by production lot and were adjusted accordingly. […]

[5] = tested on: plasma testosterone level in Brown-Norway rats; experiment: Subcutaneous osmotic pump infusion of TV159-172 derivatives and N163-166, plasma testosterone (Example II); format: in vivo; details: 309 ng/kg/day, 7 days after implantation
Procedure: as §6, §7, §8, §9

[6] = tested on: plasma testosterone level in Brown-Norway rats; experiment: Subcutaneous osmotic pump infusion of tetrapeptides, plasma testosterone (Example I); format: in vivo
Procedure: Osmotic pumps. Model 2006 osmotic pumps, infusing 0.15 μL/hr, were purchased from Alzet (Cupertino, CA). The peptide concentration loaded into the pumps was adjusted to deliver the doses indicated in each figure. The pump infusion rates varied by production lot and were adjusted accordingly. Pumps were loaded 24 hrs prior to surgical implantation under sterile conditions and were kept at 37° C. in PBS.
as §3, §4
Brown-Norway rats aged ˜29 day-old were implanted with osmotic infusion pumps in the interscapular region under general anesthesia with isoflurane following antisepsis using iodine. The surgical wound was closed with two to three staples that were removed a week after the surgery. Subcutaneous carprofen (Zoetis, Parsippany, NJ) was given before the surgical procedure and in the following two days for pain management.
as §5

[7] = tested on: plasma corticosterone level in Brown-Norway rats; experiment: Oral administration (gavage) of peptides, plasma corticosterone; format: in vivo; details: gavage with increasing concentrations, 2 hrs
Procedure: as §2, §3
For all experiments, plasma samples were obtained via percutaneous jugular puncture and collected in EDTA KE/1.3 tubes (Sarstedt, Numbrecht, Germany, Cat #5072511). […]
Plasma steroid measurements. Testosterone levels were measured using Cayman (Ann Arbor, MI) EIA kit Cat #582701, and corticosterone levels were measured using Cayman EIA kit Cat #501320. All samples were measured in duplicate according to the manufacturer's instructions. […]

[8] = samples at age 54 days (first round), ~370 ng/kg/day

Tmax ([1]; Brown-Norway, rat, plasma, read-out: time to peak concentration in blood (converted)): ~15 min | stability / degradation in plasma [3]: most stable peptide
Compound: CC[C@H](C)[C@H](NC(=O)[C@H](CCCNC(=N)N)NC(C)=O)C(=O)N[C@H](C(=O)N[C@@H](CCC(N)=O)C(=O)N[C@H](CO)C(N)=O)[C@@H](C)O [Ac-RITQdS-NH2] (Ac-RITQ[dS]-NH2)
average testosterone levels across doses [2]: increased average testosterone levels | average testosterone levels ([2]; third screening, 2 hrs): increased, although not significantly | half-life in plasma (rank order) [3]: Ac-RITQdS-NH2>RdVTQ>Ac-RdITQ-NH2>RITQ>RVTQ>KVSQ

circulating peptide levels (detection) [1]: not detected | stability / degradation in plasma [3]: rapid degradation
Compound: CC(C)[C@H](NC(=O)[C@@H](N)CCCCN)C(=O)N[C@@H](CO)C(=O)N[C@@H](CCC(N)=O)C(=O)O [KVSQ] (H-KVSQ-OH)
average testosterone levels across doses [2]: increased average testosterone levels | average testosterone levels ([2]; third screening, 2 hrs): increased, although not significantly | half-life in plasma (rank order) [3]: Ac-RITQdS-NH2>RdVTQ>Ac-RdITQ-NH2>RITQ>RVTQ>KVSQ

circulating peptide levels (detection) [1]: not detected | stability / degradation in plasma [3]: rapid time-dependent degradation
Compound: CC(C)[C@H](NC(=O)[C@@H](N)CCCNC(=N)N)C(=O)N[C@H](C(=O)N[C@@H](CCC(N)=O)C(=O)O)[C@@H](C)O [RVTQ] (H-RVTQ-OH)
corticosterone levels ([4]; 23 ng/kg/day): decreased | corticosterone levels ([4]; treatment inducing testosterone formation (309 ng/kg/day)): not affected | testosterone levels [5]: significantly increased | testosterone levels ([2]; 3 hrs sampling time): did not show an effect | half-life in plasma (rank order) [3]: Ac-RITQdS-NH2>RdVTQ>Ac-RdITQ-NH2>RITQ>RVTQ>KVSQ | increase in plasma testosterone levels ([6]; 377 ng/kg/d, ~54 day-old rats, vs water): two-fold

stability / degradation in plasma [3]: rapid time-dependent degradation
Compound: CC[C@H](C)[C@H](NC(=O)[C@@H](N)CCCNC(=N)N)C(=O)N[C@H](C(=O)N[C@@H](CCC(N)=O)C(=O)O)[C@@H](C)O [RITQ] (H-RITQ-OH)
corticosterone levels, dose-response [7]: no corresponding significant changes | testosterone levels, dose-response ([2]; gavage 10 μg/kg, 2 hrs): significant increase | testosterone levels, dose-response ([2]; gavage ~220 μg/kg, 2 hrs): non-significant decrease | testosterone levels, dose-response ([2]; gavage ~520 μg/kg, 2 hrs): significant increase | average testosterone levels ([2]; third screening, 2 hrs): increased, although not significantly | steroid (testosterone) levels ([2]; third screening, gavage ~220 μg/kg, 2 hrs): decrease in steroid levels | half-life in plasma (rank order) [3]: Ac-RITQdS-NH2>RdVTQ>Ac-RdITQ-NH2>RITQ>RVTQ>KVSQ | circulating testosterone levels [6, 8]: non-significant increase | circulating testosterone levels ([6]; samples at age 65 days (second round), ~330 ng/kg/day): significant increase

Compound: RVTQdS-NH2
testosterone levels ([2]; 2 hr post-treatment): best significant increase in testosterone levels | testosterone levels ([2]; 3 hrs sampling time): significantly increased testosterone levels

Compound: CC(C)[C@@H](NC(=O)[C@@H](N)CCCNC(=N)N)C(=O)N[C@H](C(=O)N[C@@H](CCC(N)=O)C(=O)O)[C@@H](C)O [RdVTQ] (H-R[dV]TQ-OH)
corticosterone levels, dose-response [7]: no corresponding significant changes | testosterone levels, dose-response ([2]; gavage 10 μg/kg, 2 hrs): trend to increase | testosterone levels, dose-response ([2]; gavage 800 μg/kg, 2 hrs): significant increases | testosterone levels, dose-response ([2]; gavage ~400 μg/kg, 2 hrs): significant increases | average testosterone levels across doses [2]: increased average testosterone levels | average testosterone levels, dose-response ([2]; gavage, all doses tested, 2 hrs): increased the average testosterone levels at all doses tested | average testosterone levels ([2]; third screening, 2 hrs): increased, although not significantly | half-life in plasma (rank order) [3]: Ac-RITQdS-NH2>RdVTQ>Ac-RdITQ-NH2>RITQ>RVTQ>KVSQ

Compound: KITQ
circulating testosterone levels [6, 8]: significant increase

Compound: Ac-KdITQ-NH2
average testosterone levels ([2]; third screening, 2 hrs): increased, although not significantly

Compound: CC[C@@H](C)[C@@H](NC(=O)[C@H](CCCNC(=N)N)NC(C)=O)C(=O)N[C@H](C(=O)N[C@@H](CCC(N)=O)C(N)=O)[C@@H](C)O [Ac-RdITQ-NH2] (Ac-R[dI]TQ-NH2)
average testosterone levels across doses [2]: increased average testosterone levels | average testosterone levels ([2]; third screening, 2 hrs): increased, although not significantly | half-life in plasma (rank order) [3]: Ac-RITQdS-NH2>RdVTQ>Ac-RdITQ-NH2>RITQ>RVTQ>KVSQ
